Drawing on patent US12612412B2, “Antiviral heterocyclic compounds” (Enanta Pharmaceuticals, Inc., priority 2021, dated 2026), this text covers EC50 for 33 compounds.

The test system of assay [1] is genotype A, "Long" strain RSV. In words: RSV-A assay (CPE protection in Hep-2 cells, ATPlite readout). The assay is classed as cell-based, Human respiratory syncytial virus (HRSV). The following applies: human respiratory syncytial virus, MOI 0.1, CPE protection. The gist of the method: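 Protection from RSV-induced cytopathic effect measured by ATP content (ATPlite) after 5-day culture. Infection used genotype A Long virus at MOI 0.1 on 8,000 Hep-2 cells per well, with compound serially diluted 2-fold; values are EC50.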
(In general: ATP-based viability assays read luminescence as a measure of living cells.)

Assay [2] has as its system HMPV clinical isolate TN/1501/A1. The experiment in a line: HMPV antiviral assay Method-B (clinical isolate TN/1501/A1 in LLC-MK2 cells, ATP-Lite readout). The assay is classed as cell-based, Human metapneumovirus (HMPV). The following applies: human metapneumovirus, LLC-MK2, 144 h, hMPV WT1501 (clinical isolate TN/1501/A1), 6 days. Here is the method:
In vitro HMPV antiviral activity was evaluated using the clinical isolate TN/1501/A1 and LLC-MK2 cells (ATCC #CCL-7), an immortalized kidney epithelial cell line from Macaca mulatta. Compounds were resuspended in dimethyl sulfoxide (DMSO) at 10 mM and added to a 384-well source plate. The compounds were diluted and transferred onto 384-well assay plates using the Echo-650 automated liquid handling system (Beckman Coulter, Indiana). The test compounds were assessed in duplicate at a top concentration of 10 μM followed by 3-fold serial dilutions to give a total of 10 concentration points. DMSO control wells were also included on the assay plates and were either infected or not, acting as positive and negative controls. TN/1501/A1 virus infections were performed in-suspension with LLC-MK2 cells. The cells were washed twice with PBS and removed from the cell-culture flask with 0.25% trypsin-EDTA (Thermo Fisher Scientific, MA). The trypsin-EDTA was inactivated by resuspending in 2% fetal bovine serum (FBS) and OptiMEM (ThermoFisher Scientific, MA) containing 1% penicillin-streptomycin. Cells were pelleted by centrifuging for 5 minutes at 800 rpm, the supernatant was removed, and cells were suspended in PBS plus 100 μg/mL CaCl2). This step was performed twice. Cells were then resuspended in serum-free (SF)-OptiMEM containing 4 μg/mL TPCK-Trypsin (Sigma Aldrich, MO), 1% penicillin-streptomycin (ThermoFisher Scientific, MA) and 100 μg/mL CaCl2). Cells were counted and seeded at a density of 5,000 cells/well, 12.5 μL/well. Virus infections were done at a multiplicity of infection (MOI) of 0.014 with 12.5 μL added per well. SF-OptiMEM, 12.5 μL/well, was added to the appropriate wells to serve as a virus-free negative control for the assay. The final concentration of TPCK-trypsin was 2 μg/mL. Plates were incubated at 37° C., 5% CO2 for 6 days. After 6 days incubation, 12.5 μL of ATP-Lite (PerkinElmer, MA) was added to each well and the raw luminescence values were determined using the Envision 2104 (Perkin Elmer, MA). The average of the raw luminescence values for the cells and virus only positive control wells was subtracted from all conditions tested and the percent cell health was determined by dividing these values by the average of the cells only negative control wells. EC50 values were then calculated by non-linear regression using a four-parameter curve logistic equation. The curve fit model employed was XLFit Dose Response One Site Model 200: y=(A+(B/(1+((x/C)^D)))), where A is the minimum y value, B is the maximum y value, C is the log EC50 value, and D is the slope factor. […] EC50 ranges are as follows: A<0.5 μM; B>0.5 μM.

The mark [3] stands for this setting: RSV-A Long strain, read-out: Human RSV-A (“Long”) EC50.
Setting [4] is: genotype A “Long” strain RSV, read-out: Human RSV-A (“Long”).

Structures are written as SMILES. Read-outs that look alike come from different tables or passages of the source. Some results are limits rather than exact numbers.

With `COc1cc(C(=O)NC[C@](O)(c2cc3c(c(-c4cc(F)c(F)cc4F)n2)OC[C@]3(C)C(N)=O)C2CC2)cc2cn(C3CC3)nc12` [Example 1145], the values for the EC50 in assay [1] (setting [3]) and in assay [2] were below 0.2 µM and below 0.5 µM, respectively.
As to `COc1cc(C(=O)NC[C@](O)(c2cc3c(c(-c4ccc(F)c(F)c4Cl)n2)OC[C@]3(C)C(N)=O)C2(F)CC2)cc2cn(C(F)F)nc12` [Example 748], the EC50 in assay [1] (setting [4]) was below 0.2 µM; in assay [2] it was below 0.5 µM.
On to `COc1cc(C(=O)NC[C@](O)(c2cc3c(c(-c4ccc(F)cc4)n2)OC[C@]3(C)C(N)=O)C2(F)CC2)cc2cn(C3CC3)nc12` [Example 705], for which the results for the EC50 in assay [1] (setting [4]) and in assay [2] were below 0.2 µM and below 0.5 µM, respectively.
Turning to `C[C@]1(C(N)=O)COc2c1cc([C@@](O)(CNC(=O)c1cc(OC3CC3)c3ncc(C#N)cc3c1)C(F)(F)F)nc2-c1ccc(F)cc1` [Example 1133], the EC50 in assay [1] (setting [3]) was below 0.2 µM; in assay [2], above 0.5 µM.
In the case of `C[C@]1(C(N)=O)COc2c1cc([C@@](O)(CNC(=O)c1cc(Cl)c3nn(C4CC4)cc3c1)C1CC1)nc2-c1cc(F)c(Cl)cc1F` [Example 1179], the EC50 in assay [1] (setting [3]) is below 0.2 µM; in assay [2], below 0.5 µM.
Consider `COc1cc(C(=O)NC[C@](O)(c2cc3c(c(-c4cc(F)c(F)cc4F)n2)OC[C@]3(C)C(N)=O)C2CC2)cc2cn(C(F)F)nc12` [Example 1146], for which the values for the EC50 in assay [1] (setting [3]) and in assay [2] were below 0.2 µM and below 0.5 µM, respectively.
Consider `COc1cc(C(=O)NC[C@](O)(c2cc3c(c(-c4ccc(F)cc4)n2)OC[C@@]3(C(N)=O)C(F)F)C(F)(F)F)cc2cc(Cl)c(C)nc12` [Example 1001], for which the EC50 in assay [1] (setting [3]) was below 0.2 µM; in assay [2], below 0.5 µM.
As to `COc1ccc(C(=O)NC[C@](O)(c2cc3c(c(-c4ccc(F)cc4)n2)OC[C@]3(C)C(N)=O)C(F)(F)F)n2ccnc12` [Example 699], the EC50 in assay [1] (setting [4]) is below 0.2 µM; in assay [2], above 0.5 µM.
Turning to `COc1cc(C(=O)NC[C@](O)(c2cc3c(c(-c4cc(F)c(F)c(Cl)c4)n2)OC[C@]3(C)C(N)=O)C2CC2)cc2cn(C3CC3)nc12` [Example 787], the EC50 in assay [1] (setting [4]) is below 0.2 µM; in assay [2], below 0.5 µM.
As to `C[C@]1(C(N)=O)COc2c1cc([C@@](O)(CNC(=O)c1cc(Cl)c3nn(C(F)F)cc3c1)C1CC1)nc2-c1ccc2c(c1)OC(F)(F)O2` [Example 856], the EC50 in assay [1] (setting [3]) is below 0.2 µM; in assay [2], below 0.5 µM.
For `COc1cc(C(=O)NC[C@](O)(c2cc3c(c(-c4ccc5c(c4)OC(F)(F)O5)n2)OC[C@]3(C(N)=O)C(F)F)C(F)(F)F)cc2cn(C3CC3)nc12` [Example 1034] the same measures were above 0.2 µM and above 0.5 µM.
The corresponding values for `COc1cc(C(=O)NC[C@](O)(c2cc3c(c(-c4ccc5c(c4)OCO5)n2)OC[C@]3(C)C(N)=O)C(F)(F)F)cc2cn(C3CC3)nc12` [Example 908] are below 0.2 µM and below 0.5 µM.
Take `C[C@]1(C(N)=O)COc2c1cc([C@@](O)(CNC(=O)c1cc(OC3CC3)n3nc(C4CC4)cc3c1)C(F)(F)F)nc2-c1csc2c(F)cccc12` [Example 597]: the EC50 in assay [1] (setting [4]) was below 0.2 µM; in assay [2] it was above 0.5 µM.
Take `COc1cc(C(=O)NC[C@](O)(c2cc3c(c(-c4cc(F)c(F)c(Cl)c4)n2)OC[C@]3(C)C(N)=O)C(F)(F)F)cc2cc(Cl)c(C)nc12` [Example 784]: the results for the EC50 in assay [1] (setting [4]) and in assay [2] were below 0.2 µM and below 0.5 µM, respectively.
For `COc1cc(C(=O)NC[C@](O)(c2cc3c(c(-c4ccc(Cl)cc4)n2)OC[C@]3(C)C(N)=O)C(F)(F)F)cc2cn(C(F)F)nc12` [Example 586] the same measures were below 0.2 µM and above 0.5 µM.
Regarding `COc1cc(C(=O)NC[C@](O)(c2cc3c(c(-c4cnc(C(F)(F)F)s4)n2)OC[C@]3(C)C(N)=O)C(F)(F)F)cc2cn(C3CC3)nc12` [Example 950], the EC50 in assay [1] (setting [3]) was below 0.2 µM; in assay [2], above 0.5 µM.
With `COc1cc(C(=O)NC[C@](O)(c2cc3c(c(-c4ccc(F)cc4)n2)OC[C@]3(CF)C(N)=O)C2CC2)cc2cn(C3CC3)nc12` [Example 1064], the results for the EC50 in assay [1] (setting [3]) and in assay [2] were below 0.2 µM and below 0.5 µM, respectively.
As for `COc1cc(C(=O)NC[C@](O)(c2cc3c(c(-c4ccc(F)cc4)n2)OC[C@]3(C)C(N)=O)C2CCC2)cc2cn(C3CC3)nc12` [Example 708], the EC50 in assay [1] (setting [4]) is below 0.2 µM; in assay [2] it was below 0.5 µM.
In the case of `Cc1nc2c(Cl)cc(C(=O)NC[C@](O)(c3cc4c(c(-c5ccc(F)cc5)n3)OC[C@]4(C)C(N)=O)C(F)(F)F)cc2[nH]1` [Example 487], the EC50 in assay [1] (setting [4]) was below 0.2 µM; in assay [2], above 0.5 µM.
As to `C[C@]1(C(N)=O)COc2c1cc([C@@](O)(CNC(=O)c1cc(Cl)c3nn(C4(F)CC4)cc3c1)C(F)(F)F)nc2-c1ccc(F)cc1` [Example 834], the values for the EC50 in assay [1] (setting [3]) and in assay [2] were below 0.2 µM and below 0.5 µM, respectively.
For `Cc1cnc2c(OC(F)F)cc(C(=O)NC[C@](O)(c3cc4c(c(-c5ccc(F)cc5)n3)OC[C@@]4(C(N)=O)C(F)F)C(F)(F)F)cc2c1` [Example 1007], the figures for the EC50 in assay [1] (setting [3]) and in assay [2] were below 0.2 µM and below 0.5 µM, respectively.
For `COc1cc(C(=O)NC[C@](O)(c2cc3c(c(-c4cc(F)c(Cl)cc4F)n2)OC[C@]3(C)C(N)=O)C2CC2)cc2cn(C(F)F)nc12` [Example 1178], the EC50 was below 0.2 µM in assay [1] (setting [3]) and below 0.5 µM in assay [2].
`C[C@]1(C(N)=O)COc2c1cc([C@@](O)(CNC(=O)c1cc(F)c3nc(C4CC4)cn3c1)C(F)(F)F)nc2-c1ccc2c(c1)OC(F)(F)O2` [Example 548]: the EC50 in assay [1] (setting [4]) was below 0.2 µM; in assay [2], below 0.5 µM.
For `COc1cc(C(=O)NC[C@](O)(c2cc3c(c(-c4ccc5c(c4)OC(F)(F)O5)n2)OC[C@]3(C)C(N)=O)C2(F)CC2)cc2cn(C(F)F)nc12` [Example 720] the same measures were below 0.2 µM and below 0.5 µM.
Regarding `C[C@]1(C(N)=O)COc2c1cc([C@@](O)(CNC(=O)c1cc(OC3CC3)c3nn(C(F)F)cc3c1)C(F)(F)F)nc2-c1csc2c(F)cccc12` [Example 606], the figures for the EC50 in assay [1] (setting [4]) and in assay [2] were below 0.2 µM and below 0.5 µM, respectively.
As for `COc1cc(C(=O)NC[C@](O)(c2cc3c(c(-c4ccc(F)c(Cl)c4)n2)OC[C@]3(C)C(N)=O)C2CC2)cc2cc(Cl)c(C)nc12` [Example 633], the EC50 in assay [1] (setting [4]) is below 0.2 µM; in assay [2], below 0.5 µM.
The corresponding values for `COc1cc(C(=O)NC[C@](O)(c2cc3c(c(-c4ccc(F)c(Br)c4F)n2)OC[C@]3(C)C(N)=O)C2CC2)cc2cn(C(F)F)nc12` [Example 801] are below 0.2 µM and below 0.5 µM.
On to `COc1cc(C(=O)NC[C@](O)(c2cc3c(c(-c4ccc(F)c(C#N)c4F)n2)OC[C@]3(C)C(N)=O)C(F)(F)F)cc2cn(C3CC3)nc12` [Example 1080], for which the EC50 in assay [1] (setting [3]) is below 0.2 µM; in assay [2], below 0.5 µM.
Turning to `COc1cc(C(=O)NC[C@](O)(c2cc3c(c(-c4ccc(C(F)F)cc4)n2)OC[C@]3(C)C(N)=O)C(F)(F)F)cc2cn(C3CC3)nc12` [Example 896], the EC50 in assay [1] (setting [3]) is below 0.2 µM; in assay [2] it was above 0.5 µM.
For the compound `Cc1nc2c(OC3CC3)cc(C(=O)NC[C@](O)(c3cc4c(c(-c5ccc(F)cc5)n3)OC[C@]4(C)C(N)=O)C(F)(F)F)cc2cc1Cl` [Example 885], the EC50 in assay [1] (setting [3]) was below 0.2 µM; in assay [2], below 0.5 µM.
As to `COc1cc(C(=O)NC[C@](O)(c2cc3c(c(-c4ccc(F)cc4)n2)OC[C@]3(C(N)=O)C(F)F)C(F)(F)F)cc2cc(Cl)c(C)nc12` [Example 1000], the EC50 in assay [1] (setting [3]) was below 0.2 µM; in assay [2] it was above 0.5 µM.
As to `C[C@]1(C(N)=O)COc2c1cc([C@@](O)(CNC(=O)c1cc(F)c3nc(N)sc3c1)C1CC1)nc2-c1ccc(F)c(Cl)c1` [Example 704], the values for the EC50 in assay [1] (setting [4]) and in assay [2] were below 0.2 µM and below 0.5 µM, respectively.
Turning to `COc1cc(C(=O)NC[C@](O)(c2cc3c(c(-c4ccc(F)cc4)n2)OC[C@@]3(CF)C(N)=O)C2CC2)cc2cn(C(F)F)nc12` [Example 1061], the EC50 is above 0.2 µM in assay [1] (setting [3]) and above 0.5 µM in assay [2].
